What was measured:
PGE2 [1] = assay: TPA-induced PGE2 production in keratinocytes (ELISA); type: cell-based, human; details: 100 uM
IL-6 [2] = assay: TPA-induced IL-6 production in keratinocytes (ELISA); type: cell-based, human; details: 100 uM
IL-8 [3] = assay: TPA-induced IL-8 production in keratinocytes (ELISA); type: cell-based, human; details: 100 uM
TNF-α [4] = assay: TPA-induced TNF-α production in keratinocytes (ELISA); type: cell-based, human
Protocol: (§1) In one study, various concentrations of DHE were added to culture medium and these media were placed on human fibroblast cell cultures (results shown in FIG. 1). Cells were either not induced or induced with UVB radiation to stimulate cytokine/PGE-2 production. At 24 hours after treatment, the cell culture medium was removed and assayed by ELISA methods for the expression of PGE-2, various cytokines and chemokines.
(§2) When similar experiments were carried out with human keratinocytes, DHE was again found to markedly suppress the UVR induction of PGE-2, with a concentration of 50 uM inhibiting the production of PGE-2 by over 60% (results shown in FIG. 2). […] Further, since PGE-2 is known to be a principal factor in the development of actinic keratosis and skin cancer, DHE can also be used in treating these conditions.
Inflammatory mediators produced in the skin contribute to the development and propagation of such diseases as rosacea, psoriasis and atopic dermatitis. While many inflammatory mediators are involved in these diseases, TNF-α is known to be a major cytokine involved in psoriasis. For atopic dermatitis, TNF-α, IL-8, and MCP-1 are important mediators of inflammation in these diseases. DHE is effective in suppressing the TPA-induced (TPA is tetradecanolyl phorbol ester) production of TNF-α by approximately 50% at a 100 micromolar concentration (results shown in FIG. 3).
(§3) DHE and IE both have inhibitory effects on production of the inflammatory mediators in keratinocytes.

PGE2 [5] = assay: UV-induced PGE2 production in keratinocytes (ELISA); type: cell-based, human
Protocol: as §1, §2, §3

IL-6 [6] = assay: UV-induced IL-6 production in keratinocytes (ELISA); type: cell-based, human; details: 100 uM
Protocol: as §1, §2, §3

IL-8 [7] = assay: UV-induced IL-8 production in keratinocytes (ELISA); type: cell-based, human; details: 100 uM
Protocol: as §1, §2, §3

TNF-α [8] = assay: UV-induced TNF-α production in keratinocytes (ELISA); type: cell-based, human; details: 100 uM
Protocol: as §1, §2, §3

PGE-2 [9] = assay: IL-1-induced PGE-2 production in fibroblasts (ELISA); type: cell-based, human; details: Fibroblasts (IL-1); 100 uM
Protocol: as §1, with “Cells were either not induced or induced with UVB radiation to stimulate cytokine/PGE-2 production.” left out
(§4) DHE and IE both have inhibitory effects on the production of the inflammatory mediators in fibroblasts.

IL-6 [10] = assay: IL-1-induced IL-6 production in fibroblasts (ELISA); type: cell-based, human; details: Fibroblasts (IL-1); 100 uM
Protocol: as §1, with “Cells were either not induced or induced with UVB radiation to stimulate cytokine/PGE-2 production.” left out
as §4

IL-8 [11] = assay: IL-1-induced IL-8 production in fibroblasts (ELISA); type: cell-based, human; details: Fibroblasts (IL-1); 100 uM
PGE-2 [12] = assay: UV-induced PGE-2 production in fibroblasts (ELISA); type: cell-based, human
Protocol: as §1
As is shown in FIG. 1, UV radiation (UVR) treatment of fibroblasts results in a 6 fold increase in PGE-2.
as §4

IL-6 [13] = assay: UV-induced IL-6 production in fibroblasts (ELISA); type: cell-based, human; details: 100 uM
Protocol: as §1, §4

IL-8 [14] = assay: UV-induced IL-8 production in fibroblasts (ELISA); type: cell-based, human; details: 100 uM
Protocol: as §1, §4

MCP-1 [15] = assay: LPS-induced MCP-1 production in monocytes; type: cell-based
Text: (§5) DHE and IE both have inhibitory effects on the production of the inflammatory mediators in monocytes.

IL-12 [16] = assay: LPS-induced IL-12 production in monocytes; type: cell-based; details: 100 uM
Text: as §5

TNF-α [17] = assay: LPS-induced TNF-α production in monocytes; type: cell-based
Text: as §5

IL-8 [18] = assay: LPS-induced IL-8 production in monocytes; type: cell-based
Text: as §5

MCP-1 [19] = assay: TNF-α-induced MCP-1 production in monocytes; type: cell-based; details: 100 uM
Text: as §5

IL-8 [20] = assay: TNF-α-induced IL-8 production in monocytes; type: cell-based; details: 100 uM
Text: as §5

IL-12 [21] = assay: TNF-α-induced IL-12 production in monocytes; type: cell-based; details: 100 uM
Text: as §5

collagen 1 mRNA = assay: Collagen mRNA in fibroblasts by RT-PCR; type: cell-based, human; details: fibroblast cell cultures treated 72 hours
Text: (§6) The presently claimed and disclosed inventive concept(s) further contemplates use of various DHE, IE and EV compositions and salts, esters, ethers, and derivatives thereof to mitigate the effects of aging on the skin. For all aging studies, normal human fibroblast cell cultures were used. These cells normally produce collagen, elastin and hyaluronic acid. As the skin ages, the fibroblasts in the dermis lose their ability to produce these three key components of skin, and the skin consequently loses elasticity, thickness and smooth texture. In addition, as fibroblasts age, they increase the expression of certain enzymes that destroy collagen and elastin. There are about 13 of these enzymes, collectively referred to as MMPs (matrix metalloproteinases). One of the principal MMPs, MMP-1, is responsible for collagen degradation. […] Fibroblast cell cultures were treated with either IE, DHE or EV for 72 hours at which time the amount of collagen mRNA present in the cells was determined.

elastin mRNA = assay: Elastin mRNA in human dermal fibroblasts by RT-PCR; type: cell-based; details: 72 hours
Text: as §6, with “In addition, as fibroblasts age, they increase the expression of certain enzymes that destroy collagen and elastin.” left out, “The image is from an electrophoresis gel of DNA amplified by PCR from fibroblast mRNA. This gel was analyzed and” for “Fibroblast cell cultures were treated with either IE, DHE or EV for 72 hours at which time”, “density” for “amount”, “each band quantified by image analysis software.” for “collagen mRNA present in the cells was determined.”

[22] = test system: HAS-2 (Hyaluronic acid synthase-2); assay: HAS-2 mRNA in fibroblasts by RT-PCR; type: cell-based, human; details: 72 hours
Text: (§7) The presently claimed and disclosed inventive concept(s) further contemplates use of various DHE, IE and EV compositions and salts, esters, ethers, and derivatives thereof to mitigate the effects of aging on the skin. For all aging studies, normal human fibroblast cell cultures were used. These cells normally produce collagen, elastin and hyaluronic acid. As the skin ages, the fibroblasts in the dermis lose their ability to produce these three key components of skin, and the skin consequently loses elasticity, thickness and smooth texture. In addition, as fibroblasts age, they increase the expression of certain enzymes that destroy collagen and elastin. There are about 13 of these enzymes, collectively referred to as MMPs (matrix metalloproteinases). One of the principal MMPs, MMP-1, is responsible for collagen degradation. For experiments herein to determine the effects of DHE, IE and EV on collagen, elastin and hyaluronic acid, fibroblasts were treated with the compounds for 72 hours, mRNA was then isolated, and analyzed for abundance by RT-PCR (Reverse transcriptase-Polymerase Chain Reaction).
DHE, IE and EV, are also shown herein to stimulate mRNA for HAS-2. HAS-2 (Hyaluronic acid synthase-2) is the enzyme that manufactures hyaluronic acid (HA) in the skin. HA is a glycosaminoglycan important for maintaining moisture and suppleness in the skin. […] As the skin ages, the production of HA decreases and this causes the skin to sag and become thin.

TIMP-1 = TIMP-1 mRNA in fibroblasts by PCR; type: cell-based, human
Text: as §7
Fibroblasts in the skin not only produce enzymes (MMPs) that destroy the skin matrix but they also produce proteins (Tissue Inhibitors of Metalloproteinases, i.e., TIMPS) that inhibit these enzymes. There are several TIMPs, but one that is most important for inhibiting MMPs is TIMP-1. […] Shown in FIG. 11 is PCR data showing the up-regulation of TIMP-1 mRNA by these compounds.

[23] = monocytes, LPS-induced (FIG. 4)

Structure (SMILES): CCCc1ccc(O)c(OC)c1 [DHE, dihydroeugenol]
- Percent Inhibition of PGE2 (PGE2 [1]): 77%
- Percent Inhibition of IL-6 (IL-6 [2]): 30%
- Percent Inhibition of IL-8 (IL-8 [3]): 45%
- Percent Inhibition of TNF-α (TNF-α [4]; Keratinocytes (TPA), 100 uM): 12%
- suppression of TPA-induced production of TNF-α (TNF-α [4]; keratinocytes (FIG. 3), 100 micromolar): approximately 50%
- Percent Inhibition of PGE2 (PGE2 [5]; Keratinocytes (UV), 100 uM): 68%
- inhibition of UVR-induced production of PGE-2 (PGE2 [5]; human keratinocytes, 50 uM): over 60%
- Percent Inhibition of IL-6 (IL-6 [6]): 30%
- Percent Inhibition of IL-8 (IL-8 [7]): 40%
- Percent Inhibition of TNF-α (TNF-α [8]): 31%
- Percent Inhibition of PGE-2 (PGE-2 [9]): 86%
- Percent Inhibition of IL-6 (IL-6 [10]): 47%
- Percent Inhibition of IL-8 (IL-8 [11]): 46%
- Percent Inhibition of PGE-2 (PGE-2 [12]; Fibroblasts (UV), 100 uM): 67%
- UVR induction of PGE-2 (PGE-2 [12]; human fibroblasts, 10 micromolar in culture media after irradiation, 24 hours): completely blocked
- Percent Inhibition of IL-6 (IL-6 [13]): 49%
- Percent Inhibition of IL-8 (IL-8 [14]): 11%
- Percent Inhibition of MCP-1 (MCP-1 [15]; Monocytes (LPS), 100 uM): 60%
- production of the chemokine MCP-1 (MCP-1 [15]; [23]): can inhibit the production
- Percent Inhibition of IL-12 (IL-12 [16]): 66%
- Percent Inhibition of TNF-α (TNF-α [17]; Monocytes (LPS), 100 uM): 78%
- production of the cytokine TNF-α (TNF-α [17]; [23]): can inhibit the production
- Percent Inhibition of IL-8 (IL-8 [18]; Monocytes (LPS), 100 uM): 70%
- production of the chemokine IL-8 (IL-8 [18]; [23]): can inhibit the production
- Percent Inhibition of MCP-1 (MCP-1 [19]): 46%
- Percent Inhibition of IL-8 (IL-8 [20]): 72%
- Percent Inhibition of IL-12 (IL-12 [21]): 98%
- collagen production (collagen mRNA) (collagen 1 mRNA): stimulation
- elastin levels (elastin mRNA) (elastin mRNA): increase
- mRNA for HAS-2 [22]: stimulate
- production of TIMP-1 (TIMP-1 mRNA) (TIMP-1): significantly stimulate

Reference: US9616006B2, “Methods and compositions for treating dermatological diseases and conditions” (priority 2007, dated 2017)
